# Test system: intestinal lymph node cells
# Assay: Production of IgA, IgG and cytokines by intestinal lymph node cells of mice fed lactosucrose (Experiment 3)
# Assay type: in vivo
# Conditions: for IFN-γ produced by intestinal lymph node cells / IL-4 produced by intestinal lymph node cells / IL-6 produced by intestinal lymph node cells / IL-10 produced by intestinal lymph node cells / IgA produced by intestinal lymph node cells / IgG produced by intestinal lymph node cells: four weeks
# Method: In order to investigate what type of immunopathologically-mediated tissue exerts the enhancing effect on gut immunity, the amounts of IgA, IgG, and various cytokines were measured. Similarly as in Experiment 1, female BALB/c mice (six weeks old) were preliminary reared for one week on “AIN-93G”, the same standard purified diet as used in Experiment 1. Successively, “LS-90P”, a saccharide composition comprising 91.8% (w/w), on a dry solid basis, of lactosucrose commercialized by ENSUIKO Sugar Refining Co., Ltd., Tokyo, Japan, was incorporated into the above purified diet, in which corn starch equal to the amount of the saccharide composition comprising lactosucrose had been removed, to give a lactosucrose content of 2% (w/w) or 5% (w/w), and five mice/group were allowed to ingest the resulting test diet freely. Mice, allowed to ingest “AIN-93G”, as the standard purified diet, were used as control. At four weeks after starting the administration of the test diet, Peyer's patch and intestinal lymph nodes were respectively removed from the mice and cut using a scissor. Then, the resultants were respectively treated in 0.2% (w/v) aqueous collagenase solution at 37° C. for 30 min, and filtrated using a cell strainer to obtain cell suspensions. Each cell suspension was centrifuged to collect cells and the resulting cells were suspended into a 45% (v/v) solution of “PERCOLL”, commercialized by GE Healthcare, to make into a cell suspension. Each resulting suspension was successively placed on a 75% (v/v) “PERCOLL” solution and centrifuged at 1,000×g for 10 min. Cells in a boundary phase between 45% (v/v) and 75% (v/v) “PERCOLL” solution were collected and suspended in RPMI1640 medium comprising 10% FCS and 10 mM HEPES, and the cell concentration was adjusted to 1×10^6 cells/ml. The resulting cell suspension was placed in a 24-well plate to give one ml/well each. Then, 2 μg/ml of Concanavaline A (Con A) as a stimulator to T-cell or 10 μg/ml of lipopolysaccharide (LPS) as a stimulator to B-cell and macrophage cell was admixed with the cell suspension, and then the cells were cultured at 37° C. for 48 hours using 5% (v/v) carbon dioxide gas. A culture supernatant was collected from each well, and the amounts of IgA, IgG, IFN-γ, interleukin-4 (IL-4), IL-6, interleukin-10 (IL-10), and TGF-β were measured by ELISA using an anti-mouse IgA antibody, anti-mouse IgG antibody, anti-mouse IFN-γ antibody (commercialized by Pepro Tech EC. Ltd.), anti-mouse IL-4 antibody (commercialized by R&D Systems), anti-mouse IL-6 antibody (commercialized by R&D Systems), anti-mouse IL-10 antibody (commercialized by R&D Systems), and anti-mouse TGF-β antibody (commercialized by Promega Co., Wisconsin, USA), and the average values of those from five mice were determined. The results for Peyer's patch cells and intestinal lymph node cells are respectively in Tables 3 and 4. The percentages in parentheses in the tables mean a relative value to the amount of IgA, IgG, IFN-γ, IL-4, IL-6, IL-10 or TGF-β produced by Peyer's patch cells or intestinal lymph node cells from the control mice.
# [1] = Lactosucrose 2% (w/w) diet, Con A
# [2] = Lactosucrose 2% (w/w) diet, LPS
# [3] = Lactosucrose 2% (w/w) diet, LPS, DL: Detection limit
# [4] = Lactosucrose 5% (w/w) diet, Con A
# [5] = Lactosucrose 5% (w/w) diet, LPS
# [6] = Lactosucrose 5% (w/w) diet, LPS, DL: Detection limit
structure (smiles),measurement,setting,value
"OC[C@H]1O[C@@H](O[C@H]2[C@H](O)[C@@H](O)[C@@H](O[C@]3(CO)O[C@H](CO)[C@@H](O)[C@@H]3O)O[C@@H]2CO)[C@H](O)[C@@H](O)[C@H]1O [Lactosucrose, β-D-galactosyl-(1,4)-α-D-glucosyl-(1,2)-β-D-fructoside]",IFN-γ produced by intestinal lymph node cells,[1],8.5 ± 3.4 ng/mL
same,IL-4 produced by intestinal lymph node cells,[1],22 ± 0.89 pg/mL
same,IL-6 produced by intestinal lymph node cells,[1],3.0 ± 0.81 pg/mL
same,IL-10 produced by intestinal lymph node cells,[1],14 ± 15 pg/mL
same,IgA produced by intestinal lymph node cells,[1],41 ± 15 µg/mL
same,IgG produced by intestinal lymph node cells,[1],1.9 ± 1.5 ng/mL
same,IL-6 produced by intestinal lymph node cells,[2],7.4 ± 2.6 pg/mL
same,IgA produced by intestinal lymph node cells,[2],38 ± 17 µg/mL
same,IgG produced by intestinal lymph node cells,[2],1.5 ± 1.0 ng/mL
same,IFN-γ produced by intestinal lymph node cells,[3],Below DL*
same,IL-4 produced by intestinal lymph node cells,[3],Below DL*
same,IL-10 produced by intestinal lymph node cells,[3],Below DL*
same,"IFN-γ produced by intestinal lymph node cells, relative value to control","Lactosucrose 2% (w/w), Con A",(127%)
same,"IL-4 produced by intestinal lymph node cells, relative value to control","Lactosucrose 2% (w/w), Con A",(88%)
same,"IL-6 produced by intestinal lymph node cells, relative value to control","Lactosucrose 2% (w/w), Con A",(103%)
same,"IL-10 produced by intestinal lymph node cells, relative value to control","Lactosucrose 2% (w/w), Con A",(127%)
same,"IgA produced by intestinal lymph node cells, relative value to control","Lactosucrose 2% (w/w), Con A",(85%)
same,"IgG produced by intestinal lymph node cells, relative value to control","Lactosucrose 2% (w/w), Con A",(100%)
same,"IL-6 produced by intestinal lymph node cells, relative value to control","Lactosucrose 2% (w/w), LPS",(107%)
same,"IgA produced by intestinal lymph node cells, relative value to control","Lactosucrose 2% (w/w), LPS",(93%)
same,"IgG produced by intestinal lymph node cells, relative value to control","Lactosucrose 2% (w/w), LPS",(115%)
same,IFN-γ produced by intestinal lymph node cells,[4],3.8 ± 1.2 ng/mL
same,IL-4 produced by intestinal lymph node cells,[4],21 ± 1.1 pg/mL
same,IL-6 produced by intestinal lymph node cells,[4],2.7 ± 0.44 pg/mL
same,IL-10 produced by intestinal lymph node cells,[4],14 ± 12 pg/mL
same,IgA produced by intestinal lymph node cells,[4],37 ± 31 µg/mL
same,IgG produced by intestinal lymph node cells,[4],1.00 ± 0.94 ng/mL
same,IL-6 produced by intestinal lymph node cells,[5],4.3 ± 1.1 pg/mL
same,IgA produced by intestinal lymph node cells,[5],29 ± 22 µg/mL
same,IgG produced by intestinal lymph node cells,[5],0.79 ± 0.79 ng/mL
same,IFN-γ produced by intestinal lymph node cells,[6],Below DL*
same,IL-4 produced by intestinal lymph node cells,[6],Below DL*
same,IL-10 produced by intestinal lymph node cells,[6],Below DL*
same,"IFN-γ produced by intestinal lymph node cells, relative value to control","Lactosucrose 5% (w/w), Con A",(57%)
same,"IL-4 produced by intestinal lymph node cells, relative value to control","Lactosucrose 5% (w/w), Con A",(84%)
same,"IL-6 produced by intestinal lymph node cells, relative value to control","Lactosucrose 5% (w/w), Con A",(93%)
same,"IL-10 produced by intestinal lymph node cells, relative value to control","Lactosucrose 5% (w/w), Con A",(127%)
same,"IgA produced by intestinal lymph node cells, relative value to control","Lactosucrose 5% (w/w), Con A",(77%)
same,"IgG produced by intestinal lymph node cells, relative value to control","Lactosucrose 5% (w/w), Con A",(53%)
same,"IL-6 produced by intestinal lymph node cells, relative value to control","Lactosucrose 5% (w/w), LPS",(62%)
same,"IgA produced by intestinal lymph node cells, relative value to control","Lactosucrose 5% (w/w), LPS",(71%)
same,"IgG produced by intestinal lymph node cells, relative value to control","Lactosucrose 5% (w/w), LPS",(61%)
